Measured values reported in ChEMBL document CHEMBL1145357, “Antitumor anthraquinones from an endophytic actinomycete Micromonospora lupini sp. nov” (Bioorg Med Chem Lett, 2007).
Activity calls are given as the source filed them. The rule behind the calls is not given here.

Experiments:
Mus musculus = species on record: Mus musculus; assay: Growth inhibition of mouse 26-L5 cells at 3 ug/ml by WST1 method; type: functional
[1] = Inhibition of invasion of mouse 26-L5 cells; type: functional

Row | Structure (SMILES) | Activity (Mus musculus) | IC50 [1] [nM]
1 | CCCCc1c(O)c(C)c(O)c2c1C(=O)c1c(O)cccc1C2=O [LUPINACIDIN B] | inactive | 920
2 | Cc1c(O)c(CCC(C)C)c2c(c1O)C(=O)c1cccc(O)c1C2=O [LUPINACIDIN A] | Active | 210
